Where “and” joins values, the source holds several entries; their conditions need not be identical. Equal values may be shown once. Inconclusive results and toxic doses are left out. No stated cut-off is given here; in the data, active means T/C of 150% or more; inactive means T/C below 125%.
Test system: L1210 leukemia ip in BDF1 mice, survival T/C
Assay: NCI In Vivo Anticancer Drug Screen. Data for tumor model L1210 Leukemia (intraperitoneal) in B6D2F1 (BDF1) mice
Settings: endpoint: mean survival time, higher = longer survival
In short: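 Tumor was transplanted into mice, which were then dosed with test compound or vehicle alone. Survival was recorded for each group, and the treated figure was expressed relative to the control figure.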

[1] = dose: 100.0 mg/kg/injection, schedule: Q01DX009 (ip), vehicle: Klucel (hydroxypropylcellulose) (HPC)
[2] = dose: 200.0 mg/kg/injection, schedule: Q01DX009 (ip), vehicle: Klucel (hydroxypropylcellulose) (HPC)
[3] = dose: 400.0 mg/kg/injection, schedule: Q01DX009 (ip), vehicle: Klucel (hydroxypropylcellulose) (HPC)
[4] = dose: 100.0 mg/kg/injection, schedule: Q04DX003 (ip), vehicle: Klucel (hydroxypropylcellulose) (HPC)
[5] = dose: 400.0 mg/kg/injection, schedule: Q04DX003 (ip), vehicle: Klucel (hydroxypropylcellulose) (HPC)
[6] = dose: 200.0 mg/kg/injection, schedule: Q04DX003 (ip), vehicle: Klucel (hydroxypropylcellulose) (HPC)
[7] = dose: 75.0 mg/kg/injection, schedule: Q01DX001 (ip), vehicle: saline
[8] = dose: 150.0 mg/kg/injection, schedule: Q01DX001 (ip), vehicle: saline
[9] = dose: 300.0 mg/kg/injection, schedule: Q01DX001 (ip), vehicle: saline
[10] = dose: 100.0 mg/kg/injection, schedule: Q04DX003 (ip), vehicle: saline with Tween-80
[11] = dose: 200.0 mg/kg/injection, schedule: Q04DX003 (ip), vehicle: saline with Tween-80
[12] = dose: 50.0 mg/kg/injection, schedule: Q01DX009 (ip), vehicle: saline with Tween-80
[13] = dose: 100.0 mg/kg/injection, schedule: Q01DX009 (ip), vehicle: saline with Tween-80
[14] = dose: 100.0 mg/kg/injection, schedule: Q04DX002 (ip), vehicle: Klucel (hydroxypropylcellulose) (HPC)
[15] = dose: 200.0 mg/kg/injection, schedule: Q04DX002 (ip), vehicle: Klucel (hydroxypropylcellulose) (HPC)
[16] = dose: 400.0 mg/kg/injection, schedule: Q04DX002 (ip), vehicle: Klucel (hydroxypropylcellulose) (HPC)

Measured: T/C

O=C(/C=C/c1ccccc1)N(Cc1ccccc1)c1ccccc1
inactive: [1] 97 % of control | [2] 101 % of control | [3] 103 % of control

CCCCNC(=O)C1CC2c3cc(Br)cc4[nH]c(Br)c(c34)CC2N(C)C1 (stereo unspecified)
inactive: dose: 25.0 mg/kg/injection, schedule: Q04DX003 (ip), vehicle: Klucel (hydroxypropylcellulose) (HPC) 96 % of control | [4] 91 % of control | [5] 89 % of control

Cc1c(C)c([N+](=O)[O-])c(C)c(C)c1[N+](=O)[O-]
inactive: [1] 91 % of control | [4] 96 % of control | [2] 98 % of control | [6] 100 % of control | [3] 93 % of control | [5] 101 % of control

Cc1c2ccncc2cc2c3ccccc3n(CC3CO3)c12 (stereo unspecified)
inactive: dose: 37.5 mg/kg/injection, schedule: Q01DX009 (ip), vehicle: Klucel (hydroxypropylcellulose) (HPC) 96 % of control | dose: 37.5 mg/kg/injection, schedule: Q04DX003 (ip), vehicle: Klucel (hydroxypropylcellulose) (HPC) 104 % of control | dose: 75.0 mg/kg/injection, schedule: Q01DX009 (ip), vehicle: Klucel (hydroxypropylcellulose) (HPC) 96 % of control | dose: 75.0 mg/kg/injection, schedule: Q04DX003 (ip), vehicle: Klucel (hydroxypropylcellulose) (HPC) 106 % of control and 119 % of control | dose: 150.0 mg/kg/injection, schedule: Q01DX009 (ip), vehicle: Klucel (hydroxypropylcellulose) (HPC) 100 % of control | dose: 150.0 mg/kg/injection, schedule: Q04DX003 (ip), vehicle: Klucel (hydroxypropylcellulose) (HPC) 113 % of control | dose: 300.0 mg/kg/injection, schedule: Q01DX009 (ip), vehicle: Klucel (hydroxypropylcellulose) (HPC) 102 % of control

CC1(C)C(=NN)C(C)(C)C1O (stereo unspecified)
inactive: [7] 101 % of control | [8] 104 % of control | [9] 96 % of control

CCCCCCCC(=O)Nc1cccc(OC(=O)NC)c1
inactive: [10] 98 % of control | [11] 94 % of control | dose: 400.0 mg/kg/injection, schedule: Q04DX003 (ip), vehicle: saline with Tween-80 96 % of control

CCCN1C(=O)C=CC1=O
inactive: dose: 25.0 mg/kg/injection, schedule: Q01DX009 (ip), vehicle: saline with Tween-80 96 % of control | dose: 25.0 mg/kg/injection, schedule: Q04DX003 (ip), vehicle: saline with Tween-80 91 % of control | [12] 96 % of control | dose: 50.0 mg/kg/injection, schedule: Q04DX003 (ip), vehicle: saline with Tween-80 92 % of control | [13] 95 % of control | [10] 97 % of control

COc1cc(C(C)=O)ccc1O
inactive: [14] 99 % of control | [15] 89 % of control | [16] 89 % of control

CCOC(=O)NCC(CCN1CCCCC1)(CCN1CCCCC1)c1cccc2ccccc12
inactive: [4] 107 % of control

C[n+]1cc2c(CO)cc(CO)cc2c2ccccc21
inactive: [7] 97 % of control | [8] 95 % of control | [9] 97 % of control

O=c1c(N=Nc2ccc(Br)cc2)c(O)n(-c2ccccc2)c(=S)n1-c1ccccc1
inactive: dose: 100.0 mg/kg/injection, schedule: Q01DX001 (ip), vehicle: Klucel (hydroxypropylcellulose) (HPC) 105 % of control | dose: 200.0 mg/kg/injection, schedule: Q01DX001 (ip), vehicle: Klucel (hydroxypropylcellulose) (HPC) 102 % of control | dose: 400.0 mg/kg/injection, schedule: Q01DX001 (ip), vehicle: Klucel (hydroxypropylcellulose) (HPC) 102 % of control

CS(=O)(=O)OC1C(OCc2ccccc2)OC(COCc2ccccc2)C(OC2OC(COCc3ccccc3)C(OCc3ccccc3)C(OCc3ccccc3)C2OCc2ccccc2)C1OCc1ccccc1 (stereo unspecified)
inactive: dose: 50.0 mg/kg/injection, schedule: Q04DX003 (ip), vehicle: Klucel (hydroxypropylcellulose) (HPC) 93 % of control | [4] 93 % of control | [6] 97 % of control | [5] 93 % of control

CCC(/C=C1\Oc2ccc(-c3ccccc3)cc2N1CC)=C\c1oc2ccc(-c3ccccc3)cc2[n+]1CC
inactive: dose: 0.1 mg/kg/injection, schedule: Q01DX009 (ip), vehicle: other 102 % of control | dose: 0.3 mg/kg/injection, schedule: Q01DX009 (ip), vehicle: other 110 % of control | dose: 0.6 mg/kg/injection, schedule: Q01DX009 (ip), vehicle: other 116 % of control | dose: 0.62 mg/kg/injection, schedule: Q01DX009 (ip), vehicle: saline 111 % of control | dose: 1.2 mg/kg/injection, schedule: Q01DX009 (ip), vehicle: other 116 % of control | dose: 1.25 mg/kg/injection, schedule: Q01DX009 (ip), vehicle: saline 108 % of control | dose: 2.5 mg/kg/injection, schedule: Q01DX009 (ip), vehicle: saline 114 % of control | dose: 2.6 mg/kg/injection, schedule: Q01DX009 (ip), vehicle: other 122 % of control | dose: 5.0 mg/kg/injection, schedule: Q01DX009 (ip), vehicle: saline 103 % of control | dose: 19.0 mg/kg/injection, schedule: Q01DX001 (ip), vehicle: other 109 % of control

Nc1c(Br)cc(F)cc1[N+](=O)[O-]
inactive: [4] 97 % of control | [6] 96 % of control | [5] 96 % of control

O=C1c2cc([N+](=O)[O-])ccc2-c2cc(Cl)c(Cl)cc21
inactive: [6] 91 % of control | [5] 94 % of control

Cc1ccc(C(=O)OCc2ccccc2CN2CCOCC2)cc1
inactive: [14] 100 % of control | [15] 103 % of control | [16] 92 % of control

O=C(CCl)c1ccc[nH]1
inactive: dose: 50.0 mg/kg/injection, schedule: Q01DX015 (ip), vehicle: carboxymethylcellulose (CMC) 93 % of control | dose: 75.0 mg/kg/injection, schedule: Q01DX001 (ip), vehicle: carboxymethylcellulose (CMC) 93 % of control | dose: 100.0 mg/kg/injection, schedule: Q01DX015 (ip), vehicle: carboxymethylcellulose (CMC) 93 % of control

CN(C)CCSCCO
inactive: dose: 100.0 mg/kg/injection, schedule: Q04DX002 (ip), vehicle: saline 107 % of control | dose: 200.0 mg/kg/injection, schedule: Q04DX002 (ip), vehicle: saline 95 % of control | dose: 400.0 mg/kg/injection, schedule: Q04DX002 (ip), vehicle: saline 107 % of control

CC1(C)C2=CCCC(O)C2(C)CCC1O (stereo unspecified)
inactive: [12] 96 % of control | [13] 96 % of control | dose: 200.0 mg/kg/injection, schedule: Q01DX009 (ip), vehicle: saline with Tween-80 92 % of control

COc1cccc(C[Si](C)C)c1
inactive: [10] 104 % of control | [11] 107 % of control

Nc1nc(N)c(N=Nc2ccccc2S(=O)(=O)O)c(=O)[nH]1
inactive: dose: 12.5 mg/kg/injection, schedule: Q01DX009 (ip), vehicle: saline 97 % of control | dose: 25.0 mg/kg/injection, schedule: Q01DX009 (ip), vehicle: saline 97 % of control | dose: 50.0 mg/kg/injection, schedule: Q01DX009 (ip), vehicle: saline 100 % of control | dose: 50.0 mg/kg/injection, schedule: Q04DX003 (ip), vehicle: saline 101 % of control | dose: 100.0 mg/kg/injection, schedule: Q01DX001 (ip), vehicle: saline 96 % of control | dose: 200.0 mg/kg/injection, schedule: Q01DX001 (ip), vehicle: saline 98 % of control | dose: 400.0 mg/kg/injection, schedule: Q01DX001 (ip), vehicle: saline 104 % of control
